# Values quoted from earlier work in patent publication US8153159B2, “Modafinil modified release pharmaceutical compositions” (Cephalon, Inc., priority 2003, dated 2012).
# What was measured:
# mice = conditions: single administration, Duteil et al. 1990
# monkeys = conditions: single administration, Duteil et al. 1990
# humans = conditions: Bastuji et al. 1988
smiles,measurement,setting,value
"NC(=O)C[S+]([O-])C(c1ccccc1)c1ccccc1 (stereo not drawn) [Modafinil, 2-(benzhydrylsulfinyl)acetamide]",locomotor activity,mice,increased locomotor activity
same,nocturnal activity,monkeys,increased nocturnal activity
same,treatment of idiopathic hypersomnia and narcolepsy,humans,successfully tested
